Patent US20210393621A1, “COMBINATION SEROTONIN SPECIFIC REUPTAKE INHIBITOR AND SEROTONIN 1A RECEPTOR PARTIAL AGONIST FOR REDUCING L-DOPA-INDUCED DYSKINESIA” (The Research Foundation for The State University of new York, priority 2018, published 2021)
Where two headings read alike, the source gives them in different places.

Key:
[1] = tested on: 6-OHDA-lesioned hemi-parkinsonian rats; experiment: Experiment 1: forepaw adjusting steps (FAS); type: in vivo, Sprague-Dawley rats
From the text: (§1) Conti et al., 2014). […] Forepaw adjusting steps (FAS): The FAS test is a measure of forelimb akinesia performed according to previous protocols (Bishop et al., 2012; Chang et al., 1999). Data are presented as mean percent intact stepping where the sum of the total steps with the lesioned forepaw was divided by the total steps with the unlesioned forepaw multiplied by 100. Lower percent intact scores indicate greater forelimb akinesia. Prior to baseline, rats received 2 acclimation periods. On-treatment FAS was performed 60 min post-L-DOPA.

[2] = tested on: 6-OHDA-lesioned hemi-parkinsonian rats; experiment: Experiment 2: AIMs, LID development in L-DOPA-naive hemi-parkinsonian rats; type: in vivo, Sprague-Dawley rats; details: treatment naive rats; VZD 10 or 20 mg/kg + L-DOPA 6 mg/kg, 3 weeks; vs Vilazodone (0 mg/kg)+L-DOPA (6 mg/kg)
Description: Baseline forepaw adjusting step (FAS) data was collected 3 weeks after sham or […] lesion surgery, but prior to LD exposure. Sham animals received daily VZD (0 mg/kg)+L-DOPA (0 mg/kg) and 6-OHDA-lesioned animals received daily VZD (0, 10 or 20 mg/kg; s.c.)+LD (6 mg/kg; s.c.). All VZD injections were administered 5 min prior to LD. (FIG. 2A) AIMs and (FIG. 2B) FAS were evaluated on days 1, 8, 15, and 22. AIMs values expressed are the median sum of axial, limb, and orolingual (ALO) behaviors. ALO AIMs were evaluated every 10 min for 3 h post-LD administration. Values are expressed as medians [±median absolute difference (M.A.D.)]. FAS were evaluated 60 min post LD and are expressed as the mean overall steps […] to lesion multiplied by 100.
After recovery, FAS established baseline motor disability. 6-OHDA-lesioned animals were divided into 3 equally disabled groups. […] AIMs ([…]) and FAS (FIG. 2B) were measured on Days 1, 8, 15, and 22 of treatment.
Beginning 10 min post-treatment, a trained and blinded observer assigned a severity score (0-4) to each of the ALO AIMs based on 1 min ratings every 10 min for 3 h: 0, not present; 1, present from 1-29 s; 2, present 30-59 s; 3, present all 60 s, but interruptible by a cylinder tap; 4, present 60 s and not interruptible by a cylinder tap.

[3] = tested on: 6-OHDA-lesioned hemi-parkinsonian rats; experiment: Experiment 2: forepaw adjusting steps (FAS); type: in vivo, Sprague-Dawley rats; details: Vilazodone 10 mg/kg + L-DOPA 6 mg/kg; by Day 15
Description: as §1, with “[…].). All VZD injections were administered 5 min prior to LD. […] AIMs values expressed are the median sum of axial, limb, and orolingual (ALO) behaviors. […] Values are expressed as medians [±median absolute difference (M.A.D.)].” for “Conti et al., 2014).”

[4] = tested on: MSNs of dyskinetic 6-OHDA-lesioned rats; experiment: Example 2: electrophysiology of corticostriatal transmission and striatal MSN activity; type: in vivo; details: vilazodone co-administration with L-DOPA
Description: Rats were treated for 5 consecutive days/week, for 2 weeks. On the second day of each week, stepping tests were performed prior to drug administration, and 60 minutes post L-DOPA treatment. Behavioral assessment of LIDs was performed (30-180 min) at the end of each week. […] Electrophysiological studies were conducted to assess the impact of these treatments on corticostriatal transmission and striatal neuronal activity.

[5] = cited from earlier work
SERT = target: T1, SERT (Rattus norvegicus, UniProt P31652); details: rat cortex and hippocampus ex vivo, cited from earlier work
T1 construct: 50% occupancy at 1-3 mg/kg in rat cortex and hippocampus ex vivo; from tissue; host or cells: rat cortex and hippocampus
T1 sequence (P31652 whole entry): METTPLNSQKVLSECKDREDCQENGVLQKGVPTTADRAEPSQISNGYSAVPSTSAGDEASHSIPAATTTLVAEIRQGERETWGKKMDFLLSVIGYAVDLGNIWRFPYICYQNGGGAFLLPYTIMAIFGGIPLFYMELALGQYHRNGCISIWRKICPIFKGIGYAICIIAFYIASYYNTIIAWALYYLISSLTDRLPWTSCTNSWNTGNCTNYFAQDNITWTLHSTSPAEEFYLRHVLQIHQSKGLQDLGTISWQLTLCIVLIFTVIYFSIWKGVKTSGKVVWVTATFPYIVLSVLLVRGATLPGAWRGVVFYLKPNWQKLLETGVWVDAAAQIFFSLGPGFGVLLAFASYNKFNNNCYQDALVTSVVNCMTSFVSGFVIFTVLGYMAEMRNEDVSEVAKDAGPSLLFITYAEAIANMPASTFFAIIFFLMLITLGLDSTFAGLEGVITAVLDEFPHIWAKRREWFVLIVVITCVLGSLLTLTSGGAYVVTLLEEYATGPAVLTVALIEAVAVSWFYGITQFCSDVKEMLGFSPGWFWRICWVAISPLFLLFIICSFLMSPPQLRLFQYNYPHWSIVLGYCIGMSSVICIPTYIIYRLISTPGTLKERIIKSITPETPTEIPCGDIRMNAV

[6] = tested on: extracellular 5-HT, dopamine and norepinephrine; details: cited from earlier work; for maximal increase of extracellular 5-HT: rats, acute systemic injection, measured 3 h after injection
[7] = tested on: striatal c-Fos, PPD, PPE, PPT and 5-HT1AR mRNA; experiment: Experiment 2: real-time RT-PCR of striatal gene expression
[8] = tested on: striatal and raphe tissue monoamines; experiment: Experiment 1: HPLC of tissue monoamines and metabolites in striatum and dorsal raphe nucleus; details: for 5-HIAA / 5-HT / 5-HT Turnover / DA Turnover / DOPAC / DA: 60 min post-LD
Description: Three-weeks post-lesion, animals were divided into 2 equally disabled groups, measured by forepaw adjusting steps (FAS, see below). One group (n=8) began receiving 14 days of daily vehicle (0.9% NaCl+0.1% ascorbic acid) and the other (n=22) received L-DOPA methyl ester (6 mg/kg, s.c.; Sigma)+DL-serine 2-(2,3,4-trihydroxybenzyl) hydrazine hydrochloride (benserazide; 15 mg/kg, s.c.; Sigma), hereafter L-DOPA, dissolved in vehicle at a volume of 1 mg/kg. Treatment persisted for 14 days to produce stable AIMs expression (Putterman et al., 2007; Conti et al., 2014). Thereafter, L-DOPA-treated animals with Axial, Limb, and Orolingual (ALO) AIMs (see description below, FIG. 1A)<30 were excluded from the study and the remaining L-DOPA-treated animals were divided into 3 equally dyskinetic groups. […] Daily injections continued over 23 days, with behavior assayed on Days 15, 22, 29, and 36. On Day 37, animals were killed 60 min post-treatment Left and right dorsal striata and DRN were dissected and flash frozen for HPLC analyses.
High-performance liquid chromatography (HPLC): HPLC, a method for semi-automated catecholamine analysis with coulometric detection, was performed according to prior protocols (Bishop et al., 2009) to determine the tissue levels of monoamines, their metabolites, and monoamine turnover in the striatum and DRN. The limit of detection for DOPAC, DA, 5-hydroxyindoleacetic acid (5-HIAA) and 5-HT was 10^−10 M. Final oxidation current values were plotted on a standard curve from 10^−6 M to 10^−9 M and expressed as pg of monoamine or metabolite per mg of tissue unless otherwise specified.
On the final treatment day, animals were sacrificed 60 min post-LD treatment and left and right striata and dorsal raphe nucleus (DRN) were collected for high performance liquid chromatography (HPLC) analysis. Values (means±standard mean error) are expressed as picograms of monoamine or metabolite per milligram wet tissue weight. Turnover estimates were determined by dividing a subjects metabolite value by its corresponding monoamine. Differences were assessed by a 2×4 (lesion×treatment) ANOVA, followed by Fisher's LSD post-hocs when appropriate. *p<0.01 vs lesion vs intact; +p<0.05 vs all; ^p<0.05 vs VZD (0)+LD (0); #p<0.05 vs VZD (0)+LD (6)

[9] = administered with either a fatty or light meal
[10] = lesioned striata, VZD 0, 10 or 20 mg/kg + L-DOPA 6 mg/kg daily, day 23, 60 min post-injection
[11] = Dorsal Raphe Nucleus, VZD(10) + LD(6) mg/kg
[12] = Dorsal Raphe Nucleus, VZD(20) + LD(6) mg/kg
[13] = Striatum, Intact, VZD(10) + LD(6) mg/kg
[14] = Striatum, Intact, VZD(20) + LD(6) mg/kg
[15] = Striatum, Lesion, VZD(10) + LD(6) mg/kg
[16] = Striatum, Lesion, VZD(20) + LD(6) mg/kg

Cl.N#Cc1ccc2[nH]cc(CCCCN3CCN(c4ccc5oc(C(N)=O)cc5c4)CC3)c2c1 [Vilazodone, 5-{4-[4-(5-cyano-3-indolyl)-butyl]-1-piperazinyl}-benzofuran-2-carboxamide hydrochloride]
FAS motor performance versus baseline ([1]; L-DOPA-primed rats, VZD 0, 10 or 20 mg/kg + L-DOPA 6 mg/kg, 60 min post-L-DOPA): improvements in rats treated with Vilazodone emerged 7 days later
FAS stepping versus Vilazodone (0 mg/kg)+L-DOPA (6 mg/kg) ([1]; VZD 20 mg/kg, Day 29, effect transient): depressed stepping
ALO AIMs, development of LID [2]: significantly attenuated the development of LID
FAS, pro-motor effects versus Vilazodone (0)+L-DOPA (6 mg/kg) [3]: significantly enhanced the pro-motor effects of L-DOPA
spike probability and onset latency [4]: normalizes spike probability and onset latency
AUC increase [5, 9]: 64%-85%
Cmax increase [5, 9]: 147%-160%
bioavailability ([5]; under fed conditions): 72%
SERT occupancy (SERT; 10 mg/kg): 100%
SERT occupancy (SERT; 1-3 mg/kg): 50%
maximal increase of extracellular 5-HT ([6]; frontal cortex): 527%
extracellular dopamine and norepinephrine ([6]; rat brain, vilazodone 1 and 10 mg/kg): caused no change
maximal increase of extracellular 5-HT ([6]; ventral hippocampus): 558%
striatal PPT mRNA ([7]; FIG. 6B): significantly reduced it
striatal 5-HT1AR mRNA ([7]; day 23): did not affect striatal 5-HT1AR mRNA
striatal PPE mRNA ([7]; lesioned striata, L-DOPA 6 mg/kg, Vilazodone 20 mg/kg): modestly, though significantly reduced
striatal PPD mRNA [7, 10]: dose-dependently attenuated
striatal c-Fos mRNA [7, 10]: diminished
5-HIAA [8, 11]: 2541 ± 187^ picograms per milligram wet ti
5-HT [8, 11]: 7013 ± 462^^ picograms per milligram wet ti
5-HT Turnover [8, 11]: 0.37 ± 0.02
DA Turnover [8, 11]: 7.60 ± 0.78
DOPAC [8, 11]: 1175 ± 234 picograms per milligram wet ti
5-HIAA [8, 12]: 1985 ± 345^ picograms per milligram wet ti
5-HT [8, 12]: 5946 ± 776^ picograms per milligram wet ti
5-HT Turnover [8, 12]: 0.32 ± 0.03
DA [8, 12]: 128 ± 15.2 picograms per milligram wet ti
DA Turnover [8, 12]: 7.19 ± 1.12
DOPAC [8, 12]: 909 ± 186 picograms per milligram wet ti
5-HIAA [8, 13]: 470 ± 35.5 picograms per milligram wet ti
5-HT [8, 13]: 326 ± 24.3 picograms per milligram wet ti
5-HT Turnover [8, 13]: 1.45 ± 0.04
DA [8, 13]: 4827 ± 222 picograms per milligram wet ti
DA Turnover [8, 13]: 0.85 ± 0.05
DOPAC [8, 13]: 4138 ± 332^ picograms per milligram wet ti
5-HIAA [8, 14]: 422 ± 38.6 picograms per milligram wet ti
5-HT [8, 14]: 305 ± 33.5 picograms per milligram wet ti
5-HT Turnover [8, 14]: 1.41 ± 0.07
DA [8, 14]: 4560 ± 337 picograms per milligram wet ti
DA Turnover [8, 14]: 0.84 ± 0.03
DOPAC [8, 14]: 3839 ± 306 picograms per milligram wet ti
5-HIAA [8, 15]: 842 ± 78.8 picograms per milligram wet ti
5-HT [8, 15]: 261 ± 30.7 picograms per milligram wet ti
5-HT Turnover [8, 15]: 3.38 ± 0.31
DA [8, 15]: 128 ± 14.2 picograms per milligram wet ti
DA Turnover [8, 15]: 1.56 ± 0.18
5-HIAA [8, 16]: 596 ± 55.1+ picograms per milligram wet ti
5-HT [8, 16]: 223 ± 23.8 picograms per milligram wet ti
5-HT Turnover [8, 16]: 2.84 ± 0.33^
DA [8, 16]: 128 ± 26.2 picograms per milligram wet ti
DA Turnover [8, 16]: 1.50 ± 0.15
DOPAC [8, 16]: 190 ± 44.6 picograms per milligram wet ti
DRN 5-HT ([8]; Vilazodone 10 mg/kg + L-DOPA): significantly increased DRN 5-HT
striatal 5-HT Turnover ([8]; Vilazodone 20 mg/kg, compared to Vilazodone (0 mg/kg)+L-DOPA (0 mg/kg)): reduced 5-HT Turnover
striatal 5-HIAA (printed 5-HIM) ([8]; Vilazodone 20 mg/kg, compared to all other treatments): attenuated 5-HIM
DRN DA Turnover ([8]; Vilazodone 10 or 20 mg/kg + L-DOPA): attenuated
DA in the lesioned striatum ([8]; both doses (10, 20 mg/kg) + L-DOPA vs groups receiving Vilazodone vehicle): significantly increased DA
DRN 5-HT Turnover ([8]; both doses of Vilazodone + L-DOPA): attenuated 5-HT Turnover
